Results on 14 compounds are retold here after patent US20120232062A1, “AZAINDAZOLES TO TREAT FLAVIVIRIDAE VIRUS INFECTION” (EIGER BIOPHARMACEUTICALS, INC., priority 2009, published 2012).

SMILES strings stand for the structures. pEC50, pIC50: −log10 of the molar value.

Data set [1] has as its system HCV genotype 1b. The experiment in a line: HCV 1b replicon luciferase assay. The data set is classed as cell-based. The note with it: Hepatitis C virus, Huh-7, 48 h, Table 1; Huh7 HCV 1b replicon, luciferase reporter, 48 hours; read-out: 1b EC50. The procedure, abridged:
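Huh7 cells carrying a genotype 1b replicon with stable luciferase reporter, 10k cells/well, were treated 48 h at 37 °C with 10-point 5-fold dilutions from 25 μM (0.1% DMSO), in duplicate. Replication was read as Steady-Glo luminescence.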
In general terms: In antiviral work, replicon cells carry a viral genome segment that copies itself.

Data set [2] deals with T1, hERG channel (Homo sapiens, UniProt Q12809).
T1 construct: host or cells: CHO (Chinese Hamster Ovary), stably transfected
The experiment in a line: hERG channel assay. Conditions: CHO cell line expressing hERG, whole cell recordings. It is filed as cell-based. On the procedure:
The most common mechanism for these adverse events is the inhibition of one or more cardiac potassium channels, in particular hERG. This current is important for cardiac myocyte repolarization and is a common target for drugs that prolong the QT interval. Test articles in this study were therefore characterized to determine their ability to inhibit the hERG channel. Ion channel activity was measured using a stably transfected Chinese Hamster Ovary (CHO) cell line expressing the hERG mRNA. The pharmacology of this cloned channel expressed in the CHO cell line is very similar to that observed in native tissue.
Cells: AVIVA's CHO cell line, which stably expresses hERG channels, was used for the study. Cells were cultured in DMEM/F12 containing 10% FBS, 1% penicillin/streptomycin and 500 μg/ml G418. Before testing, cells were harvested using Accumax (Innovative Cell Technologies).
Solutions: For electrophysiological recordings, the following solutions were used. External Solution: 2 mM CaCl2; 2 mM MgCl2; 4 mM KCl; 150 mM NaCl; 10 mM Glucose; 10 mM HEPES; 310-320 mOsm; pH 7.4 (adjusted with 1M NaOH). Internal Solution: 140 mM KCl; 10 mM MgCl2; 6 mM EGTA; 5 mM HEPESNa; […]; 300-320 mOsm; pH 7.25 (adjusted with 1M KOH).
Electrophysiology: Whole cell recordings were performed using PX 7000A (Axon Instruments) with VIVA's SealChip™ technology. Cells were voltage clamped at a holding potential of −80 mV. The hERG current was then activated by a depolarizing step to −50 mV for 300 ms. This first step at −50 mV was used as a baseline for measuring peak amplitude of the tail current. Next, a voltage step to +20 mV was applied for 5 s to activate the channels. Finally a step back to −50 mV for 5 seconds removed activation and the deactivating tail current was recorded.
Compound Handling and Dilutions: All compounds were prepared from either 10 or 30 mM DMSO stock solutions. Solutions were mixed by sonication for 20 min, followed by vigorous vortexing. Prior to testing, compounds were diluted to test concentrations in glass vials using External Solution. Dilutions were prepared no longer than 20 min prior to use. Equal amounts of DMSO (0.1%) were present in all final dilutions.
Electrophysiology Procedures: After achieving whole cell configuration, cells were monitored for 90 s to assess stability and then washed with External Solution for 66 s. The voltage protocol described above was then applied to the cells every 12 s throughout the procedure. Only stable cells with recording parameters above threshold (see Quality Control section) were allowed to enter the drug addition procedure. External solution containing 0.1% DMSO (vehicle) was applied to the cells to establish a baseline. After allowing the current to stabilize for 3 to 5 min, test articles were applied. Test article solutions were added to cells in 4 separate additions. Cells were kept in test solution until effect of the test article reached steady state, to a maximum of 12 min. Next, 1 μM cisapride (positive control) was added. Finally, washout with External Solution was performed until the recovery current reached a steady state.
Data Analysis: Data analysis was performed using DataXpress (Axon Instruments), Clampfit (Axon Instruments) and Origin (Originlab Corporation) software.
(The hERG channel carries a current that helps repolarise heart muscle cells.)

Data set [3] concerns the target FTase (Homo sapiens, UniProt P49356). Conditions: cited from earlier work.

T1 sequence (Q12809 whole entry): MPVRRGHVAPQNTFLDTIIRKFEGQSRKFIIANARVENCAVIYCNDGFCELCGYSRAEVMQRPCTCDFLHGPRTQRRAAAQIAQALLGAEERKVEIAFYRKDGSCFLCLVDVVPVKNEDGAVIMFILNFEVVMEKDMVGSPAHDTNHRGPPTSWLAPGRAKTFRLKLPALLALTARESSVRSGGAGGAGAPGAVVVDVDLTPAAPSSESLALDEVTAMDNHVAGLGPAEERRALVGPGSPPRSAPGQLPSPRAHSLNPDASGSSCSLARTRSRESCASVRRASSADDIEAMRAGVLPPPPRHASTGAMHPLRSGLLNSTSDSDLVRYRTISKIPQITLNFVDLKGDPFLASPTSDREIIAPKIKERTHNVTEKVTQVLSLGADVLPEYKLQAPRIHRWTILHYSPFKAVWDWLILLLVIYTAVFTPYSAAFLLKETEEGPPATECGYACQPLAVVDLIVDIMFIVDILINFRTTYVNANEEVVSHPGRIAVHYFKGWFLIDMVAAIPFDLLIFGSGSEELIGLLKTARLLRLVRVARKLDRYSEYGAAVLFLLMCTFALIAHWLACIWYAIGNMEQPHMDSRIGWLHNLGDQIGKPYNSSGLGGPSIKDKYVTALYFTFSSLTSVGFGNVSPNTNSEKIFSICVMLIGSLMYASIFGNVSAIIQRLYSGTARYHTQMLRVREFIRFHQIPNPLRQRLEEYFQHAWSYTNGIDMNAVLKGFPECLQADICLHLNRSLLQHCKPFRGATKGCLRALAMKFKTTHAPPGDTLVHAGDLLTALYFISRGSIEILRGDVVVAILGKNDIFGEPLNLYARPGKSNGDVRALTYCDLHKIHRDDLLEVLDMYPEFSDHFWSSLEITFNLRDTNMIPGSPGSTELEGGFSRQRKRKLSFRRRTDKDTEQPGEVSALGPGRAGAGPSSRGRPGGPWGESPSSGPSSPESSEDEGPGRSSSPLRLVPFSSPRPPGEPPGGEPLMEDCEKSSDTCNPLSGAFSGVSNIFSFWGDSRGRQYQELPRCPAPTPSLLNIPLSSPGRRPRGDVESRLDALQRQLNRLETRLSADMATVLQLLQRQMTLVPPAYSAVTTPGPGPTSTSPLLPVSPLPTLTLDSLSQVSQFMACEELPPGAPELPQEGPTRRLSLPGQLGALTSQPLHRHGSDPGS

What is called pEC50 is the negative decadic logarithm of the EC50, by convention in mol/L. Broadly, the pIC50 is the IC50 on a negative log10 scale, so that one unit is a factor of ten. Consider `CCC(CC)Oc1ccc2c(COCC3CCNCC3)nn(Cc3ccc(Cl)cc3)c2n1` [compound 756], for which the pEC50 in data set [1] is 5.66. This compound also showed a negative logarithm of the IC50 (pIC50) in data set [2] (human, CHO cells stably expressing hERG, pH 7.4) of 5.00.

Regarding `O=C(Nc1nn(Cc2ccc(Cl)cc2)c2nc(N3CCCCCC3)ccc12)C1CCCNC1` (stereo not drawn) [compound 745], in data set [1], the negative logarithm of the EC50 (pEC50) is 5.52. Moreover, the pIC50 in data set [2] is < 5.00.

For the compound `O=C(NC1CCNCC1)c1n[nH]c2nc(OC3CCCCC3)ccc12` [compound 729], in data set [1], the pEC50 is 5.74. The pIC50 in data set [2] was < 5.00.

Regarding `Cn1cncc1C(N)(c1ccc(Cl)cc1)c1ccc2c(c1)c(-c1cccc(Cl)c1)cc(=O)n2C` (stereo not drawn) [Tipifarnib, 6-[Amino(4-chlorophenyl)-1-methyl-1H-imidazol-5-ylmethyl]-4-(3-chlorophenyl)-1-methyl-2(1H)-quinolinone], the pIC50 in data set [3] is 9.07.

Regarding `Cn1nc(C(=O)NC2CCN(CC3CCCCC3)CC2)c2ccc(N3CCCCCC3)nc21` [compound 987], in data set [1], the pEC50 is 6.26. In data set [2], this compound gave a pIC50 of 6.06.

`Cn1nc(C(=O)Nc2ccncc2)c2ccc(N3CCCCCC3)nc21` [compound 701]: the pEC50 in data set [1] is 5.96. In addition, the pIC50 in data set [2] was < 5.00.

Take `CC(C)CN(C)c1ccc2c(C(=O)NC3CCNCC3)n[nH]c2n1` [compound 738]: the pEC50 in data set [1] was 5.66. Also, the pIC50 in data set [2] is < 5.00.

Turning to `O=C(Nc1n[nH]c2nc(N3CCCCCC3)ccc12)C1CCNCC1` [compound 680], the negative-log EC50 (pEC50) in data set [1] was 5.39. The pIC50 in data set [2] is < 5.00.

As for `Cn1nc(N)c2ccc(N3CCCCCC3)nc21` [compound 658], the pEC50 in data set [1] was 5.66 to 6.40. The pIC50 in data set [2] is < 5.00.

`O=C(NC1CCNCC1)c1n[nH]c2nc(N3CCCCCC3)ccc12` [compound 655]: the negative-log EC50 (pEC50) in data set [1] was 5.46 to 5.68. This compound gave a negative-log IC50 (pIC50) in data set [2] of 5.87.

Take `O=C(NC1CCNCC1)c1n[nH]c2nc(O)ccc12` [compound 744]: in data set [1], the pEC50 is 5.82. In addition, the negative-log IC50 (pIC50) in data set [2] is < 5.00.

Turning to `O=C(NCC1CCCNC1)c1n[nH]c2nc(N3CCCCCC3)ccc12` (stereo not drawn) [compound 703], the pEC50 in data set [1] is 5.66. In addition, the pIC50 in data set [2] was 5.06.

Turning to `Cn1nc(NC(=O)c2cccs2)c2ccc(N3CCCCCC3)nc21` [compound 659], the pEC50 in data set [1] is 5.31 to 5.74. Further, in data set [2], the pIC50 was < 5.00.

`O=C(NCC1CCNCC1)c1n[nH]c2nc(N3CCCCCC3)ccc12` [compound 702]: the negative logarithm of the EC50 (pEC50) in data set [1] was 5.47. In data set [2], the pIC50 was < 5.00.
